We go through six compounds from PMC4791575 (ACS Infectious Diseases, 2016).

Data set [1] relates to HepG2 cells. Briefly: HepG2 host cell toxicity assay. As to conditions: HepG2, purchased inhibitors, Table 3. The format is cell-based.
In data set [2] the test system is P. falciparum W2. Briefly: microbe, parasite or virus in culture. It is filed as cell-based, Plasmodium falciparum. To be noted: for EC50: Plasmodium falciparum, W2, read-out: P. falciparum W2 pEC50 (converted).
In data set [3] the test system is L. major intracellular amastigotes. Briefly: microbe, parasite or virus in culture. The format is cell-based, Leishmania major. To be noted: for EC50: Leishmania major, read-out: Leishmania Amast pEC50 (converted).
The subject of data set [4] is P. falciparum D6. Nature of the data set: microbe, parasite or virus in culture. It is filed as cell-based, Plasmodium falciparum. To be noted: for EC50: Plasmodium falciparum, D6, read-out: P. falciparum D6 pEC50 (converted).
Data set [5] relates to T. cruzi intracellular amastigotes (Tulahuen strain). Nature of the data set: microbe, parasite or virus in culture. It is filed as cell-based, Trypanosoma cruzi. As to conditions: for EC50: Trypanosoma cruzi, TULAHUEN, read-out: T. cruzi pEC50 (μM) (within 21%) (converted).
The test system of data set [6] is 3T3. Nature of the data set: 3T3 host cell toxicity. The format is cell-based.
For data set [7], the system named is T. brucei cells. Briefly: microbe, parasite or virus in culture. The format is cell-based, Trypanosoma brucei. As to conditions: for EC50: Trypanosoma brucei, read-out: T. brucei pEC50 (within 46%) (converted).
In data set [8] the test system is P. falciparum C235. Briefly: microbe, parasite or virus in culture. To be noted: for EC50: Plasmodium falciparum, read-out: P. falciparum C235 pEC50 (converted). The format is cell-based, Plasmodium falciparum.
Data set [9] has as its system L. major promastigotes. Briefly: microbe, parasite or virus in culture. The format is cell-based, Leishmania major. To be noted: for EC50: Leishmania major, read-out: Leishmania Promast pEC50 (converted).
For data set [10] the following is noted: HAT patients; cited from earlier work.

In the case of `Nc1cccc(-c2cc3c(Oc4cccc(O)c4)ncnc3[nH]2)c1` [NEU-989, TWS11925], the “host cell tox HepG2 pTC50” value in data set [1] is <4.4. Besides, in data set [2] (W2), the “P. falciparum W2 pEC50” value is listed as 4.7. Also, the “Leishmania Amast pEC50” value in data set [3] (L. major intracellular amastigotes) was <4.8. Moreover, the “P. falciparum D6 pEC50” value in [4] (D6 strain) is listed as 5.0. Also, the T. cruzi pEC50 (within 21%) in [5] (intracellular amastigotes, Tulahuen strain) was < 4.3. Besides, the “host cell tox 3T3 pTC50” value in data set [6] is 4.4. Further, in data set [7] (purchased inhibitors, Table 3), the “T. brucei pEC50 (within 46%)” value is recorded as 6.0. Moreover, in [8] (C235), the “P. falciparum C235 pEC50” value came to 5.1. Also, the “Leishmania Promast pEC50” value in data set [9] (L. major promastigotes) was 4.7.
Turning to `Cn1cc(C2=C(c3ccc(Cl)cc3Cl)C(=O)NC2=O)c2ccccc21` [NEU-990, SB 21676322], the “host cell tox HepG2 pTC50” value in data set [1] was <4.4. For the same compound, the EC50 in data set [2] is > 20 µM; in data set [3] it was > 15.8 µM; in data set [4], > 20 µM; in data set [5], > 50.1 µM; in [7], > 3.16 µM; in data set [8] it was > 20 µM. In [9], the EC50 was 2.51 µM. Moreover, the “host cell tox 3T3 pTC50” value in [6] was <4.
As for `O=c1sn(-c2cccc3ccccc23)c(=O)n1Cc1ccccc1` [NEU-991, tideglusib], the “host cell tox HepG2 pTC50” value in data set [1] is <4.4. Moreover, the EC50 in data set [2] is 25.1 µM; in [3], > 15.8 µM; in data set [4], 25.1 µM; in data set [5] it was 20 µM; in data set [7] it was > 3.16 µM; in data set [8] it was 20 µM. Besides, in data set [9], the EC50 is 0.316 µM. The “host cell tox 3T3 pTC50” value in data set [6] is listed as 4.1.
`CC(C)CC(=O)Nc1[nH]nc2c1CN(C(=O)C1CCN(C)CC1)C2(C)C` [NEU-1007, PHA-79388727]: the “host cell tox HepG2 pTC50” value in data set [1] is on record as <4.4. The EC50 is 2.51 µM in [2]; > 15.8 µM in data set [3]; 2 µM in [4]; > 50.1 µM in data set [5]; 2 µM in data set [7]; 2.51 µM in data set [8]. The EC50 in data set [9] was > 25.1 µM. The “host cell tox 3T3 pTC50” value in data set [6] is <4.
`COc1ccc2c(c1)[nH]c1c(C)nccc12` [NEU-1049, harmine]: the “host cell tox HepG2 pTC50” value in [1] is on record as <5.1. In addition, the EC50 in data set [2] was > 20 µM; in [3] it was 1.26 µM; in [4], > 20 µM; in data set [5] it was 15.8 µM; in data set [7], > 3.16 µM; in data set [8] it was > 20 µM. For the same compound, in data set [9], the EC50 is 1.26 µM. In addition, the “host cell tox 3T3 pTC50” value in data set [6] is given as <4.
With `Nc1nc(N)nc(Nc2ccc([As]3SCC(CO)S3)cc2)n1` (stereo not shown) [melarsoprol], in data set [10], the “mortality rate of melarsoprol treatment” value is ≥ 5%.
